Tests used:
[1] = system: IL-1α-induced PGE2 release; assay: IL-1α-induced PGE2 release in human diploid lung fibroblasts (WI-38) (Assay 5); assay type: cell-based; conditions: Homo sapiens, WI-38 cells, IL-1α 1 nM, overnight
Procedure, shortened: (§1)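 WI-38 fibroblasts stimulated overnight at 37 °C with 1 nM IL-1α plus test compound at 3 and 30 μM in MEM with 10% FBS, pH 7.3; released PGE2 in supernatant quantified by radioimmunoassay as percent inhibition. Viability then checked by Alamar Blue, 4 h at 37 °C, fluorescence ex 530/em 590 nm.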

[2] = system: ovalbumin-sensitised guinea pigs; assay: Ovalbumin-sensitised guinea pigs, a model of asthma in vivo (Assay 7); set-up: species or system guinea pig; conditions: oral gavage 30 mg/kg/day for 7 days
Procedure: Dunkin-Hartley guinea pigs were sensitised to ovalbumin using two interperitoneal injections of ovalbumin (20 μg) in Al(OH)3 gel (1.65 mg) on days 1 and 11. On day 25 compound 2 was administered by oral gavage (30 mg/kg/day) for 7 days. On day 31, approximately 2 h after the last administration of compound 2, each guinea pig was anaesthetised with urethane (1750 mg/kg, i.p.) and artificially ventilated via a tracheal cannula connected to a Fleisch pneumotachograph (size 00) and a differential pressure transducer (±2 cm H2O; PT5, Grass Astro-Med Inc., USA). Total pulmonary resistance (RL) was calculated online by integration of flow, tidal volume and transpulmonary pressure. Pulmonary resistance was recorded for approximately 5 min before ovalbumin (300 μg/ml, i.v) challenge and for approximately 15 min following ovalbumin challenge and was recorded in real time using a computer data acquisition system (Po-ne-Mah, USA).

[3] = system: ovalbumin-sensitised mice; assay: Ovalbumin-sensitised mice, a chronic model of asthma in vivo (Assay 8); conditions: for methacholine-induced increase in penH (enhanced pause) / Increase in penH: day 54; for methacholine-induced increase in penH (enhanced pause): methacholine challenge 50 mg/kg; for methacholine-induced increase in penH (enhanced pause) / eosinophil infiltration into the lung / IL-13 concentrations in the BAL / amount of lung remodelling (histopathology grading): oral gavage 20 days: compound 2 3, compound 32 30, budesonide 1, montelukast 10 mg/kg/day; for eosinophil infiltration into the lung: day 55, BAL cytospins; for Eosinophil infiltration / IL-4 concentration / IL-13 concentration / Histopathology score / Increase in penH: mean ± s.e.mean, oral gavage 20 days: 2 3 mg/kg/day, 32 30 mg/kg/day, budesonide 1 mg/kg/day, montelukast 10 mg/kg/day; for Eosinophil infiltration / IL-4 concentration / IL-13 concentration: BAL fluid day 55; for Eosinophil infiltration: sensitised 192.1 ± 33.2; for IL-4 concentration: sensitised 231.2 ± 62.4; for IL-13 concentration: sensitised 241.9 ± 89.3; for Histopathology score: lung remodelling, sensitised 541.6 ± 36.1; for Increase in penH: methacholine challenge, sensitised 193.0 ± 61.7
Procedure: Mice (BALB/c from Harlan-Olac) were sensitised to ovalbumin using two interperitoneal injections of ovalbumin (10 μg) and alum (200 μl) on day 1 and 14 followed by a 20 min, daily exposure to a ovalbumin aerosol (5%) on days 19-23 and then a thrice weekly 20 min, exposure to a ovalbumin aerosol (5%) on days 24-55. […] On day 54, mice were placed in BUXCO four chamber whole body plethysmographs and breathing-associated pressure changes were recorded which were then used to calculate enhanced pause (penH), a measurement of airways resistance, in response to a methacholine challenge.
On day 55 the mice were killed and brochoalveolar lavage (BAL) fluid was collected and cytospins prepared to measure eosinophil infiltration. In addition, concentrations of interleukin-4 (IL-4) and interleukin-13 (IL-13) were measured in the BAL fluid. Furthermore, lung samples were taken, examined by a histopathologist and scored using a grading system to describe the degree of lung remodelling.

WI-38 cells = assay: Viability of WI-38 cells, Alamar Blue (Assay 5); assay type: cell-based, human
Procedure, shortened: as §1

| SMILES | inhibition at 3 µM [1] | inhibition at 30 µM [1] | increase in pulmonary resistance following ovalbumin exposure ([2]; ovalbumin 300 μg/kg i.v. challenge, vehicle control group 228±57%) | increase in pulmonary resistance compared with vehicle control ([2]; ovalbumin i.v. challenge) | methacholine-induced increase in penH (enhanced pause) [3] | eosinophil infiltration into the lung [3] | IL-13 concentrations in the BAL ([3]; day 55) | amount of lung remodelling (histopathology grading) ([3]; day 55) | Eosinophil infiltration [3] | IL-4 concentration [3] | IL-13 concentration [3] | Histopathology score ([3]; day 55) | Increase in penH [3] | Decrease in cell viability (%) (WI-38 cells; 3 μM) | Decrease in cell viability (%) (WI-38 cells; 30 μM) | IL-4 concentration in the BAL ([3]; day 55, oral gavage 20 days: compound 32 30, budesonide 1, montelukast 10 mg/kg/day) |
| --- | --- | --- | --- | --- | --- | --- | --- | --- | --- | --- | --- | --- | --- | --- | --- | --- |
| COc1cc(CCC(=O)CC(=O)C(C)(C)C)ccc1O [Compound 2, 6,6-Dimethyl-1-(4-hydroxy-3-methoxyphenyl)-heptane-3,5-dione] | 88% | 102% | 132±15% | significantly lower than vehicle control | decreased | reduced | reduced | reduced | 83.0 ± 10.8% of control | 238.2 ± 57.1% of control | 183.0 ± 60.9% of control | 450.0 ± 33.4% of control | 107.4 ± 21.5% of control | −2% | 4% | – |
| COc1cc(CCC(=O)CC(=O)c2ccccc2)ccc1O [Compound 69, 5-(4-Hydroxy-3-methoxyphenyl)-1-phenyl-pentane-1,3-dione] | 89% | 102% | – | – | – | – | – | – | – | – | – | – | – | 3% | 4% | – |
| COc1cc(CCC(=O)CC(=O)C2(C)CC2)ccc1O [Compound 6, 5-(4-Hydroxy-3-methoxyphenyl)-1-(1-methylcyclopropyl)-pentane-1,3-dione] | 88% | 102% | – | – | – | – | – | – | – | – | – | – | – | 6% | 4% | – |
| COc1cc(CCC(=O)C(C)C(=O)c2ccccc2)ccc1O (centres unmarked) [Compound 11, 5-(4-Hydroxy-3-methoxy-phenyl)-2-methyl-1-phenyl-pentane-1,3-dione] | 79% | 100% | – | – | – | – | – | – | – | – | – | – | – | 1% | −7% | – |
| COc1cc(CCC(=O)C(C)(C)C(=O)c2ccccc2)ccc1O [Compound 32, 2,2-Dimethyl-5-(4-hydroxy-3-methoxy-phenyl)-1-phenyl-pentane-1,3-dione] | 67% | 101% | – | – | decreased | reduced | reduced | reduced | 106.6 ± 19.9% of control | 168.0 ± 50.8% of control | 148.7 ± 88.4% of control | 339.3 ± 45.0% of control | 153.5 ± 29.0% of control | −4% | −3% | reduced |
